Experimental data published in the supplement of paper PMC4862054.

These compounds were tested on HCC1937. Conditions: 72 h.
In short: (§1)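 Breast cancer cell lines (20 µl suspension) were seeded into 384-well plates holding compound at 5 concentrations in 10-fold steps over a compound-specific 10,000-fold range, then incubated 72 h. Cell death was read first by CellTox Green fluorescence (485/520 nm), then viability by CellTiter-Glo luminescence after 10 min at room temperature. Each plate was normalised to 0.1 % DMSO and a positive kill control. EC50 was fitted from the dose-response curves and censored at the top concentration.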

Row | EC50, CellTiter-Glo | SMILES
1 | 34.5 nM | O=C(Cc1ccc(-c2ccc(OCCN3CCOCC3)cc2)cn1)NCc1ccccc1 [KX2-391]

Each compound was assayed on HDQ-P1. Conditions: 72 h.
In short: as §1

Row | SMILES | EC50, CellTiter-Glo
2 | CC(=O)Nc1cccc(-n2c(=O)n(C3CC3)c(=O)c3c(Nc4ccc(I)cc4F)n(C)c(=O)c(C)c32)c1 [Trametinib] | 1.7 nM
3 | Nc1ncn([C@H]2C[C@H](O)[C@@H](CO)O2)c(=O)n1 [Decitabine] | > 10000 nM
4 | C=CC(=O)N1CCC[C@@H](n2nc(-c3ccc(Oc4ccccc4)cc3)c3c(N)ncnc32)C1 [Ibrutinib] | 168 nM
5 | COc1cc2c(NC3CCN(C(C)C)CC3)nc(C3CCCCC3)nc2cc1OCCCN1CCCC1 [UNC0638] | 5250 nM
6 | COc1cc([C@@H]2c3cc4c(cc3[C@@H](O[C@@H]3O[C@@H]5CO[C@@H](c6cccs6)O[C@H]5[C@H](O)[C@H]3O)[C@H]3COC(=O)[C@H]23)OCO4)cc(OC)c1O [Teniposide] | 5210 nM
7 | O=C(Cc1ccc(-c2ccc(OCCN3CCOCC3)cc2)cn1)NCc1ccccc1 [KX2-391] | 26.5 nM

The compounds below were run on Hs578T. Conditions: 72 h.
In short: as §1

Row | SMILES | EC50, CellTiter-Glo
8 | CC(=O)Nc1cccc(-n2c(=O)n(C3CC3)c(=O)c3c(Nc4ccc(I)cc4F)n(C)c(=O)c(C)c32)c1 [Trametinib] | 137 nM
9 | Nc1ncn([C@H]2C[C@H](O)[C@@H](CO)O2)c(=O)n1 [Decitabine] | > 10000 nM
10 | COc1cc([C@@H]2c3cc4c(cc3[C@@H](O[C@@H]3O[C@@H]5CO[C@@H](c6cccs6)O[C@H]5[C@H](O)[C@H]3O)[C@H]3COC(=O)[C@H]23)OCO4)cc(OC)c1O [Teniposide] | 2060 nM
11 | O=C(Cc1ccc(-c2ccc(OCCN3CCOCC3)cc2)cn1)NCc1ccccc1 [KX2-391] | 49.6 nM

The compounds below were run on MCF-10A. Conditions: 72 h.
In short: as §1

Row | SMILES | EC50, CellTiter-Glo
12 | CC(=O)Nc1cccc(-n2c(=O)n(C3CC3)c(=O)c3c(Nc4ccc(I)cc4F)n(C)c(=O)c(C)c32)c1 [Trametinib] | 0.71 nM
13 | C=CC(=O)N1CCC[C@@H](n2nc(-c3ccc(Oc4ccccc4)cc3)c3c(N)ncnc32)C1 [Ibrutinib] | 198 nM
14 | COc1cc2c(NC3CCN(C(C)C)CC3)nc(C3CCCCC3)nc2cc1OCCCN1CCCC1 [UNC0638] | 1880 nM
15 | O=C(Cc1ccc(-c2ccc(OCCN3CCOCC3)cc2)cn1)NCc1ccccc1 [KX2-391] | 29.6 nM

What follows are compounds tested on MDA-MB-231. Conditions: 72 h.
In short: as §1

Row | EC50, CellTiter-Glo | SMILES
16 | 6.45 nM | CC(=O)Nc1cccc(-n2c(=O)n(C3CC3)c(=O)c3c(Nc4ccc(I)cc4F)n(C)c(=O)c(C)c32)c1 [Trametinib]
17 | 2540 nM | COc1cc2c(NC3CCN(C(C)C)CC3)nc(C3CCCCC3)nc2cc1OCCCN1CCCC1 [UNC0638]
18 | 1910 nM | COc1cc([C@@H]2c3cc4c(cc3[C@@H](O[C@@H]3O[C@@H]5CO[C@@H](c6cccs6)O[C@H]5[C@H](O)[C@H]3O)[C@H]3COC(=O)[C@H]23)OCO4)cc(OC)c1O [Teniposide]
19 | 75.9 nM | O=C(Cc1ccc(-c2ccc(OCCN3CCOCC3)cc2)cn1)NCc1ccccc1 [KX2-391]

The compounds below were run on MDA-MB-436. Conditions: 72 h.
In short: as §1

Row | EC50, CellTiter-Glo | SMILES
20 | 67 nM | CC(=O)Nc1cccc(-n2c(=O)n(C3CC3)c(=O)c3c(Nc4ccc(I)cc4F)n(C)c(=O)c(C)c32)c1 [Trametinib]
21 | 2510 nM | COc1cc2c(NC3CCN(C(C)C)CC3)nc(C3CCCCC3)nc2cc1OCCCN1CCCC1 [UNC0638]
22 | 204 nM | COc1cc([C@@H]2c3cc4c(cc3[C@@H](O[C@@H]3O[C@@H]5CO[C@@H](c6cccs6)O[C@H]5[C@H](O)[C@H]3O)[C@H]3COC(=O)[C@H]23)OCO4)cc(OC)c1O [Teniposide]
23 | 51.4 nM | O=C(Cc1ccc(-c2ccc(OCCN3CCOCC3)cc2)cn1)NCc1ccccc1 [KX2-391]

These compounds were tested on MDA-MB-453. Conditions: 72 h.
In short: as §1

Row | EC50, CellTiter-Glo | SMILES
24 | 10.5 nM | C=CC(=O)N1CCC[C@@H](n2nc(-c3ccc(Oc4ccccc4)cc3)c3c(N)ncnc32)C1 [Ibrutinib]
25 | 2400 nM | COc1cc2c(NC3CCN(C(C)C)CC3)nc(C3CCCCC3)nc2cc1OCCCN1CCCC1 [UNC0638]
26 | 55.6 nM | O=C(Cc1ccc(-c2ccc(OCCN3CCOCC3)cc2)cn1)NCc1ccccc1 [KX2-391]

These compounds were tested on MDA-MB-468. Conditions: 72 h.
In short: as §1

Row | EC50, CellTiter-Glo | SMILES
27 | 65.2 nM | Nc1ncn([C@H]2C[C@H](O)[C@@H](CO)O2)c(=O)n1 [Decitabine]
28 | 1950 nM | COc1cc2c(NC3CCN(C(C)C)CC3)nc(C3CCCCC3)nc2cc1OCCCN1CCCC1 [UNC0638]
29 | 614 nM | COc1cc([C@@H]2c3cc4c(cc3[C@@H](O[C@@H]3O[C@@H]5CO[C@@H](c6cccs6)O[C@H]5[C@H](O)[C@H]3O)[C@H]3COC(=O)[C@H]23)OCO4)cc(OC)c1O [Teniposide]
30 | 44.2 nM | O=C(Cc1ccc(-c2ccc(OCCN3CCOCC3)cc2)cn1)NCc1ccccc1 [KX2-391]

Each compound was assayed on MFM-223. Conditions: 72 h.
In short: as §1

Row | SMILES | EC50, CellTiter-Glo
31 | CC(=O)Nc1cccc(-n2c(=O)n(C3CC3)c(=O)c3c(Nc4ccc(I)cc4F)n(C)c(=O)c(C)c32)c1 [Trametinib] | 53.2 nM
32 | COc1cc2c(NC3CCN(C(C)C)CC3)nc(C3CCCCC3)nc2cc1OCCCN1CCCC1 [UNC0638] | 2270 nM
33 | COc1cc([C@@H]2c3cc4c(cc3[C@@H](O[C@@H]3O[C@@H]5CO[C@@H](c6cccs6)O[C@H]5[C@H](O)[C@H]3O)[C@H]3COC(=O)[C@H]23)OCO4)cc(OC)c1O [Teniposide] | 1740 nM
34 | O=C(Cc1ccc(-c2ccc(OCCN3CCOCC3)cc2)cn1)NCc1ccccc1 [KX2-391] | 83.9 nM

These compounds were tested on SK-BR-3. Conditions: 72 h.
In short: as §1

Row | EC50, CellTiter-Glo | SMILES
35 | 11.9 nM | C=CC(=O)N1CCC[C@@H](n2nc(-c3ccc(Oc4ccccc4)cc3)c3c(N)ncnc32)C1 [Ibrutinib]
36 | 2270 nM | COc1cc2c(NC3CCN(C(C)C)CC3)nc(C3CCCCC3)nc2cc1OCCCN1CCCC1 [UNC0638]
37 | 138 nM | COc1cc([C@@H]2c3cc4c(cc3[C@@H](O[C@@H]3O[C@@H]5CO[C@@H](c6cccs6)O[C@H]5[C@H](O)[C@H]3O)[C@H]3COC(=O)[C@H]23)OCO4)cc(OC)c1O [Teniposide]
38 | 20.1 nM | O=C(Cc1ccc(-c2ccc(OCCN3CCOCC3)cc2)cn1)NCc1ccccc1 [KX2-391]

These compounds were tested on CAL-148. Conditions: 72 h.
In short: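 Each 384-well plate was pre-loaded with compound dissolved in 5 µl medium, received breast cancer cells in 20 µl suspension, and was incubated 72 h. A 2.5 µl addition of CellTiter-Blue for 2 h at 37 °C was followed by a fluorescence read at 560/590 nm. Data were normalised per plate to vehicle and a positive kill control and checked by Z'-factor. EC50 was fitted from the percent-inhibition dose-response curve, censored at the highest concentration, excluding rows with a drug sensitivity score of zero.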

Row | SMILES | EC50, CellTiter-Blue viability
39 | Nc1ncn([C@H]2C[C@H](O)[C@@H](CO)O2)c(=O)n1 [Decitabine] | 6600 nM
40 | COc1cc([C@@H]2c3cc4c(cc3[C@@H](O[C@@H]3O[C@@H]5CO[C@@H](c6cccs6)O[C@H]5[C@H](O)[C@H]3O)[C@H]3COC(=O)[C@H]23)OCO4)cc(OC)c1O [Teniposide] | 220 nM
